In article PMC5872116, “Screening of E. coli β-clamp Inhibitors Revealed that Few Inhibit Helicobacter pylori More Effectively: Structural and Functional Characterization” (Antibiotics, 2018):

How the values were obtained:
Hpβ-clamp [1] = target: T1, Hpβ-clamp (Helicobacter pylori, UniProt O25242); experiment: co-crystal structure ([…] Å); also SPR surface competition with HpDNA ligase; type: binding; settings: subsite I of protein-protein interaction site; competitive with HpDNA ligase
T1 construct: gene dnaN; recombinant, expressed in E. coli BL21, Ni-NTA and gel filtration purified (His-tag implied); homodimer
T1 sequence (O25242 1-374): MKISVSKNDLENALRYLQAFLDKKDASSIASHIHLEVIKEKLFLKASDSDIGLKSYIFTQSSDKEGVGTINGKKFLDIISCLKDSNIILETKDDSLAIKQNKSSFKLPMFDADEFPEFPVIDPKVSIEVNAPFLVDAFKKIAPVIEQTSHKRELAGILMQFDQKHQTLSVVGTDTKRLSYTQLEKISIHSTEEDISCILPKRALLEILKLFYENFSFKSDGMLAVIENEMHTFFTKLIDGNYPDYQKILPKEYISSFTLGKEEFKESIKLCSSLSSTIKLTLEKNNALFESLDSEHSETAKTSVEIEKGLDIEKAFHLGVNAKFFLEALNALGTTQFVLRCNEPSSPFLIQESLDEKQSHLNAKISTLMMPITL

Hpβ-clamp [2] = target: T1, Hpβ-clamp; experiment: SPR surface competition with HpDNA ligase, immobilised Hpβ-clamp (qualitative); type: binding; settings: competitive with HpDNA ligase; HBS-EP pH 7.4, 2% DMSO

| SMILES | co-crystal structure (1.97 Å); also SPR surface competition with HpDNA ligase (Hpβ-clamp [1]) | SPR surface competition with HpDNA ligase, immobilised Hpβ-clamp (qualitative) (Hpβ-clamp [2]) |
| --- | --- | --- |
| C[C@H](C(=O)O)c1ccc2c(c1)[nH]c1ccc(Cl)cc12 [C3, (S)-carprofen] | 5FXT (Hpβ-clamp complex with carprofen, C3) | – |
| O=[N+]([O-])c1ccc2[nH]ccc2c1 [C4, 5-nitroindole] | – | All five shortlisted molecules showed competitive binding to β-clamp. |
| O=[N+]([O-])c1ccc2cn[nH]c2c1 [C2, 6-nitroindazole] | – | All five shortlisted molecules showed competitive binding to β-clamp. |
